Values of other authors as cited in patent US10201585B2, “Methods for treatment of atherosclerosis” (Stealth Peptides International, Inc., priority 2012, dated 2019).

Tests used:
[1] = system: hepatitis C virus (HCV); details: alone and with interferon; cited from earlier work
[2] = system: spinal cord injury in rodents; details: administered both pre- and post-injury; cited from earlier work

Row | SMILES | Effect on HCV in an in vitro model of HCV infection [1] | Effect in spinal cord injury [2]
1 | O=C(O)C[C@H](O)C[C@H](O)/C=C/c1c(C2CC2)nc2ccccc2c1-c1ccc(F)cc1 [pitavastatin] | anti-HCV effect | –
2 | CC(C)c1c(C(=O)Nc2ccccc2)c(-c2ccccc2)c(-c2ccc(F)cc2)n1CC[C@@H](O)C[C@@H](O)CC(=O)O [atorvastatin] | anti-HCV effect | promoting locomotion and tissue sparing, as well as reducing inflammation
3 | CC[C@H](C)C(=O)O[C@H]1C[C@@H](C)C=C2C=C[C@H](C)[C@H](CC[C@@H]3C[C@@H](O)CC(=O)O3)[C@H]21 [lovastatin] | anti-HCV effect | –
